From patent US5837817A, “Tumor necrosis factor receptor-II-associated protein kinase and methods for its use” (Research Development Foundation, priority 1996, dated 1998)

Legend:
p80TRAK = experiment: In vitro kinase assay with p80TRAK precipitated from U937 cells with p80Δ5, p80Δ5 as substrate; format: biochemical
Experimental: (§1) An in vitro kinase assay with 10 units of purified casein kinase 1 (FIG. 11A) or p80TRAK precipitated from U937 cells with p80Δ5 (FIG. 8B) with p80Δ5 as a substrate was performed in the presence of the indicated concentration of casein kinase 1-7 dissolved in DMSO. The asterisk represents a control in which DMSO was added to a final concentration of 1.6%. Reaction mixtures were analyzed by 9% sodium dodecyl sulfate-polyacrylamide gel electrophoresis, and the dried gel was exposed to a PhosphorImager screen. The phosphorylation of p80Δ5 was quantitated by ImageQuant Software (Molecular Dynamics, Sunnyvale, Calif.) .
(§2) Standard kinase assays were carried out for 10 minutes at 37° C. in 50 μl containing 20 mM HEPES, pH 7.4, 10 mM MgCl2, 0.2 mM ATP, 0.2 mM NaF, 0.1 mM sodium orthovanadate, and 10 μCi [γ-^32 P]ATP or as described. Reactions were stopped with 15 μl SDS-sample buffer, boiled for 5 minutes and then subjected to SDS-PAGE. Protein bands were visualized by staining with Coomassie Blue and the dried gels were analyzed by a Phosphorimager (Molecular Dynamics, Sunnyvale, Calif.). Labeled protein bands were quantitated by using ImageQuant Software (Molecular Dynamics, Sunnyvale, Calif.). […]

purified casein kinase 1 = molecular target: T1, purified casein kinase 1 (Rattus norvegicus, UniProt Q06486); experiment: In vitro kinase assay with purified casein kinase 1, p80Δ5 as substrate; format: biochemical; conditions: 100 μM inhibitor; 10 units purified casein kinase 1; read-out: inhibition of purified casein kinase 1, measured by phosphorylation of p80Δ5
T1 construct: purchased New England Biolabs, Beverly, Mass
T1 sequence (Q06486 1-317 limits assumed): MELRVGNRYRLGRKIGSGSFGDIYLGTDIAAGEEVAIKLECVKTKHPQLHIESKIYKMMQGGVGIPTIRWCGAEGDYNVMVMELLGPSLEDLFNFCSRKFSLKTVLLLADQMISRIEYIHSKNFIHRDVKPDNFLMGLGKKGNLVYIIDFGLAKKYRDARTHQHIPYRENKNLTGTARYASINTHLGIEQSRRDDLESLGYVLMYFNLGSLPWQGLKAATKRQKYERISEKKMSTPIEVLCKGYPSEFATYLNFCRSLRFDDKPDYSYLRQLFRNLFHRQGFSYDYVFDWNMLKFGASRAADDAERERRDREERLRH
Experimental: as §1, §2

[1] = tested on: p80 receptor phosphorylation, SW480T cells; conditions: pretreatment of SW480T cells; cited from earlier work

Compound | effect on p80TRAK activity as measured by phosphorylation of p80Δ5 (in words) (p80TRAK) | inhibition of p80TRAK, measured by phosphorylation of p80Δ5 (p80TRAK; 100 μM inhibitor, p80TRAK precipitated from U937 cells) [%] | inhibition at 100 µM (purified casein kinase 1) [%] | extent of phosphorylation of the p80 receptor [1]
NCCNS(=O)(=O)c1ccc(Cl)c2ccncc12 [casein kinase 1-7] | inhibited | 50 | 80 | –
CN[C@@H]1C[C@H]2O[C@@](C)([C@@H]1OC)n1c3ccccc3c3c4c(c5c6ccccc6n2c5c31)C(=O)NC4 [staurosporine] | – | – | – | reduced
